The test system of assay [1] is H9P49 embryonic stem cells. Description: Pancreatic endoderm under feeder-free conditions: evaluation of retinoic acid analogues (PCR). Type of assay: cell-based, human. The conditions noted are these: 10 μM AM-580.
Protocol: At day 5, cells were collected for evaluation by FACS and real-time PCR. […] The resulting definitive endoderm cells at day 5 were exposed to the following media conditions to induce pancreatic endoderm formation: culturing in DMEM/F12 media supplemented with 2% FBS and 1 μM all-trans retinoic acid (RA) (Catalog # R2625, Sigma, MO), or 0.1-10 μM AM-580 (4-[(5,6,7,8-Tetrahydro-5,5,8,8-tetramethyl-2-naphthalenyl)carboxamido]benzoic acid, Catalog # A8843, Sigma, MO), or 0.1-1 μM TTNPB (4-[(E)-2-(5,6,7,8-Tetrahydro-5,5,8,8-tetramethyl-2-naphthalenyl)-1-propenyl]benzoic acid Arotinoid acid, Catalog # T3757, Sigma, MO) for 3 days. AM-580 and TITNPB are retinoic acid analogs with affinity for retinoic acid receptors. RA treatment was followed by additional three day treatment in DMEM/F12 media supplemented with 2% FBS and 20-50 ng/ml bFGF (Catalog # F0291, Sigma, MO). Cultures were harvested and samples of mRNA were collected for analysis.
The next assay has as its system SA002 P38 cells. Description: Differentiation of SA002 ES line on […] to definitive endoderm. The conditions noted are these: 20 ng/ml Wnt-3a. Type of assay: cell-based, human. The source says: Expression of CXCR4 is depicted in FIGS. 45A, 45B and 45C: a) AA treatment b) AA+Wnt-3a c) AA+GSK-3B inhibitor.
For a further assay, the system named is H9 embryonic stem cells. Description: Immunofluorescence staining of DE markers +/- Wnt-3a. Type of assay: cell-based, human. The source says:
Day 5 DE cultures of H9 cells were stained according to Example 10 for SOX-17, HNF-3B, GATA-4, N-cadherin, and E-cadherin. All nuclei were counter stained with DAPI.

Assay [2] concerns H9P46-P48 embryonic stem cells. Description: Definitive endoderm on […]: effect of GSK-3B inhibitor (FACS CXCR4, PCR). The following applies: 20 ng/ml of Wnt-3a or 100-1000 nM GSK-3B inhibitor. Type of assay: cell-based, human. How it is done: In order to confirm that the effect of Wnt-3a was through the Wnt pathway, a GSK-3 inhibitor was used to activate the downstream targets of Wnt, such as beta catenin. […] FIG. 29A depicts the expression of CXCR4 by FACS at day 5 in the absence of Wnt-3a or GSK-3B inhibitor, b)+20 ng/ml Wnt-3a, c)+1000 nM GSK-3B inhibitor IX, d)+500 nM GSK-3B inhibitor IX, e)+100 nM GSK-3B inhibitor IX, f)+10 nM GSK-3B inhibitor IX, g)+100 nM GSK-3B inhibitor IX for days 1-2, and h)+10 nM GSK-3B inhibitor IX for days 1-2.

For assay [3], the system named is human embryonic stem cell line H9. Description: Cells from […] differentiated on MEFs: role of Wnt-3a (real-time PCR, FACS). Type of assay: cell-based. How it is done: Cells from the human embryonic stem cell line H9 cultured on […]™ for at least five passages were seeded onto MEF feeders in ES media.
At day 3 and 5, the cultures were analyzed by real time PCR for SOX-17, SOX-7, Alpha-fetal protein (AFP), CXCR4, Brychyury (Bry), gooscecoid (GSC), HNF-3 beta, GATA4, hTERT and Oct4. AFP and SOX-7 are regarded as visceral endoderm markers while GATA4, HNF-3beta and SOX-17 represent definite endoderm markers and GSC, Bry, and CXCR4 represent markers of primitive streak. hTERT and Oct-4 are markers for self renewal and pluripotency respectively. FACS analysis was also performed at day 3 and 5.

Assay [4] deals with H7P44 and H9P46 embryonic stem cells. Description: Definitive endoderm on […]: role of Wnt ligands (FACS CXCR4, real-time PCR). Type of assay: cell-based, human. The conditions noted are these: H7 and H9; low serum+AA+/-Wnt ligands. The procedure: In some of the cultures 20 ng/ml Wnt-3a (Catalog #1324-WN-002, R&D Systems, MN), 20 ng/ml Wnt-5a (Catalog #654-WN-010, R&D Systems, MN), 25 ng/ml Wnt-7a (Catalog #3008-WN-025, R&D Systems, MN), or 25 ng/ml Wnt-5b (Catalog #3006-WN-025, R&D Systems, MN) was added throughout the five day treatment. FIGS. 24A and 24B depicts phase contrast images of H9P46 definitive endoderm culture in the presence of high concentration of (a) AA or (b) AA+20 ng/ml Wnt-3a. FIGS. 25A, 25B, 25C and 25D depicts the expression of CXCR4 by FACS at day 5 for H7P44, and H9P46 lines cultured on […]™ (1:30 dilution) and exposed to the DE protocol+Wnt-3a (FIGS. 25B and 25D) and -Wnt-3a (FIGS. 25A and C).

Assay [5] deals with human embryonic stem cell line H9. Description: Cytokine array of cell lysates and conditioned media +/- Wnt3a (Table VII). Type of assay: cell-based. Further details: unit not given here. The following applies: 100 ng/ml Activin A + 10 ng/ml Wnt3a. How it is done: The effect that Wnt-3a treatment has on cytokine expression was analyzed using a protein array. Cells of the human embryonic stem cell line H9 were cultured according to the methods described in Example 15. […] Cell lysates were prepared from cells of each treatment group, with a mammalian cell lysis kit (Sigma-Aldrich, MO). Conditioned media from each treatment group was collected and concentrated. Cytokine array analysis was completed using Cytokine Array panels provided by RayBiotech, GA (http://www.raybiotech.com/). Table VII lists cytokine, growth factor, and receptor expression following normalization of the data and background subtraction. For each panel, positive and negative controls are also included.

The subject of assay [6] is H9P46 embryonic stem cells. Description: Definitive endoderm on […]: effective dose of Wnt-3a (FACS, PCR, cell number). Type of assay: cell-based, human. How it is done:
Control cultures were not treated with Wnt-3a. FIG. 27A depicts the expression of CXCR4 by FACS at day 5 in the absence of Wnt-3a, b) 10 ng/ml Wnt-3a, c) 20 ng/ml Wnt-3a and d) 50 ng/ml Wnt-3a. In the absence of Wnt-3a the expression of CXCR4 was very low. […] Real-time PCR results (FIG. 28A) also confirm this finding.
In a separate study, H9p52 cells were plated on 1:30 low growth factor […]™. For the first 2 days of the DE protocol a range of Wnt3A doses was used: 10 ng/ml, 5 ng/ml and 1 ng/ml. […] The number of cells at the end of the experiment is noted in FIG. 28C.

The subject of the next assay is H9P44 cells. Description: Definitive endoderm on MEFs with growth factor combinations: RT-PCR of definitive endoderm markers (Table V). Type of assay: cell-based, human. The conditions noted are these: H9P44 on MEF. How it is done: H9P44 cells were plated onto 6 well plates previously coated with mitomycin treated mouse embryonic fibroblasts (MEF). Cells were grown until 70 to 80% confluency in ES cell medium consisting of DMEM/F12 (Invitrogen/GIBCO) supplemented with 20% knockout serum replacement, 100 nM MEM nonessential amino acids, 0.5 mM beta-mercaptoethanol, 2 mM L-glutamine (all from Invitrogen/GIBCO) and 8 ng/ml human basic fibroblast growth factor (bFGF) (R&D Systems).
Growth factors were added to increasing concentration of FBS in a stepwise manner as indicated in the following regimen:
All growth factors were purchased from R&D Systems, MN. A detailed description and concentration of growth factors for each treatment group is shown below. • 1. Control—No growth factor added • 2. […] IL-4 (10 ng/ml) • 10. SDF1a (20 ng/ml) • 11. […] BMP2 (100 ng/ml)+BMP-4 (100 ng/ml)+BMP-6 (100 ng/ml)+BMP-7 (100 ng/ml) • 13.
For RT-PCR analysis, cells were analyzed for expression of selected panel of definitive endoderm markers.

The next assay concerns H9 cultures. Description: Definitive endoderm on varying concentrations of […] with Wnt-3a (real-time PCR). Type of assay: cell-based, human. The following applies: low serum, 100 ng/ml activin A and 20 ng/ml Wnt-3a. How it is done:
H9 cells were cultured on plates coated with regular […] at a 1:60 to 1:10 dilution. The plates were coated with […] for 1 hr at room temperature.

The subject of assay [7] is human embryonic stem cell line H1 at passage 55. Description: Definitive endoderm on human serum coated plates (real-time PCR). Type of assay: cell-based. The procedure:
Cultures of the human embryonic stem cell line H1 at passage 55 were grown and differentiated on human serum (Sigma, # H1388, MO) coated plates. 0.5 ml of human serum was added to each well of 6 well tissue culture treated dish, incubated for 1 hr at room temperature, and aspirated before adding human embryonic stem cells. […] These findings parallel our findings for human embryonic stem cells cultured on […]™ or human fibronectin coated plates.

Assay [8] concerns H9P53 embryonic stem cells. Description: Definitive endoderm on […]: combination of Wnt-3a, GSK-3B inhibitor, BMP-4. Type of assay: cell-based, human. The following applies: Wnt-3A plus GSK inhibitor in the presence of activin A. The text has this:
Results are expressed as fold increase over untreated cells. […] Results are expressed as fold increase over untreated cells.

“And” between values parts separate entries of the source, which are not always exact repeats. Equal entries are not always repeated.

As to `CC1(C)CCC(C)(C)c2cc(C(=O)Nc3ccc(C(=O)O)cc3)ccc21` [AM-580, 4-[(5,6,7,8-Tetrahydro-5,5,8,8-tetramethyl-2-naphthalenyl)carboxamido]benzoic acid], in [1], the “expression of PDX-1” value is listed as “maintaining a high expression”.
Consider Wnt-3a, for which, in the assay with SA002 P38 cells, the “expression of DE markers” value is listed as “required addition of Wnt-3A for robust expression of DE markers”. Further, the “nuclei stained positive for SOX-17, HNF-3beta and GATA-4” value with H9 embryonic stem cells (20 ng/ml Wnt-3a, day 5) is given as “significantly larger number”. Besides, the expression of e-cadherin result with H9 embryonic stem cells (addition of Wnt-3a) is “significant loss of expression”. The “number of CXCR4 positive cells (FACS)” value is listed as “significantly increased” in assay [2] and “significantly increased” in assay [6] (10-50 ng/ml of Wnt-3a, day 5). Moreover, the “role in differentiation of cells cultured on MEFs to definitive endoderm” value in assay [3] is listed as “does not appear to play a significant role”. For the same compound, the “expression of definitive endoderm markers (real-time PCR)” value in [4] was “significant upregulation”. The Axl expression was 610.40 and 748.34 in [5] (cell conditioned media); 88.59 and 139.03 in assay [5] (cell lysate). Moreover, the IL-1beta expression in assay [5] (cell conditioned media) is 316.59 and 278.30; in assay [5] (cell lysate), 352.05 and 312.08. Further, the IL-1ra expression in assay [5] (cell conditioned media) was 354.23 and 581.75; in assay [5] (cell lysate), 302.68 and 198.48. Further, the “Wnt3a dose sufficient for optimal cell expansion and definitive endoderm differentiation” value in [6] (H9p52, for 2 days) was found to be 10 ng/mL. In addition, in assay [6] (absence versus 10 and 50 ng/ml Wnt-3a: 10 ng/ml compared with 50 ng/ml), the “expression of CXCR4 (FACS)” value is “as effective as”. Also, in the assay on H9P44 cells, the “definitive endoderm markers on addition to high dose activin A in low serum” value is “no significant upregulation”. Moreover, in the assay on H9 cultures, the “expression of CXCR4, GATA4, Goosecoid, HNF-3beta, and SOX-17 genes” value is “led to the expression”. In addition, the “expression of definitive endoderm markers compared to activin A only” value in assay [7] was “Robust expression”. Also, in [8], the “definitive endoderm markers, combination versus each agent by itself” value is “do not lead to significant upregulation”.

The values are drawn from US11708562B2, “Differentiation of human embryonic stem cells” (Janssen Biotech, Inc., priority 2006, dated 2023).
